Data set [1] deals with HIV-infected 1A2 cells (a subclone of CEM-SS TART cells). Kind of data set: Cytoprotective cell-based anti-HIV assay. The note with it: at 78 µM.
Data set [2] has as its target wild-type HIV-1 integrase (Human immunodeficiency virus type 1 group M subtype B, UniProt P04585). Type of data set: biochemical. The conditions noted are these: at 100 µg/mL.
The conditions of data set [3]: cited from earlier work.
Data set [4] deals with adipocyte differentiation. The conditions noted are these: cited from earlier work.
Another data set relates to HIV integrase. The note with it: cited from earlier work.

Starred links: 1 amine or outer side, 2 acyl side, 3 side chain; linkers in the order of their positions; H or OH if unused. Non-standard residues stand in square brackets, D forms with d. Residues, ends and D or L forms follow the SMILES beside them. *: point of attachment. X1 = O=C([C@H]1CSC([C@@H](Cc2ccccc2)N[*:1])=N1)[*:2]; Allyl(1,1-Me2) = C=CC(C)(C)*

In the case of `C=CC(C)(C)O[C@H](C)[C@@H]1NC(=O)[C@H]2CSC(=N2)[C@@H](Cc2ccccc2)NC(=O)[C@@H]2CCCN2C(=O)[C@H](CO)NC(=O)[C@H](CC(C)C)NC1=O` [Compound 1, Mollamide E] (cyclo(LSP[X1]T(Allyl(1,1-Me2)))), in data set [1], the “HIV inhibition in cytoprotective assay at single concentration” value is on record as “did not show any inhibition”. Further, in data set [2], the “HIV-1 integrase inhibition at single concentration” value is “no activity”. For the molecule `O=C(NCCc1ccccc1)NCCc1ccccc1C(=O)NCCc1ccccc1` [Compound 3, Molleurea A], the “HIV-1 integrase inhibition at single concentration” value in data set [2] is reported as “no activity”. Regarding `O=C(NCCc1ccccc1)NCCc1ccccc1` [N, N’-diphenethylurea], in data set [3], the Antidepressant action result was “act as an antidepressant”. Moreover, in data set [4], the “Promotion of adipocyte differentiation” value is recorded as “promote adipocyte differentiation”.

Take `CC(C)C[C@@H]1NC(=O)[C@@H]2CCCN2C(=O)[C@H](C(C)C)NC(=O)c2csc(n2)CNC(=O)c2csc(n2)[C@H](CCC(N)=O)NC1=O` [dolastatin 3]: the “HIV integrase inhibition activity” value in the data set on HIV integrase was “HIV integrase inhibition activity”.
